{
  "source": "patent US20240316074A1",
  "about": "(priority 2021, published 2024)",
  "key": {"[1]": {"molecular_target": "T1, transporter ABCG2 (also called BCRP) (Homo sapiens, UniProt Q9UNQ0)", "T1 sequence (Q9UNQ0 1-655)": "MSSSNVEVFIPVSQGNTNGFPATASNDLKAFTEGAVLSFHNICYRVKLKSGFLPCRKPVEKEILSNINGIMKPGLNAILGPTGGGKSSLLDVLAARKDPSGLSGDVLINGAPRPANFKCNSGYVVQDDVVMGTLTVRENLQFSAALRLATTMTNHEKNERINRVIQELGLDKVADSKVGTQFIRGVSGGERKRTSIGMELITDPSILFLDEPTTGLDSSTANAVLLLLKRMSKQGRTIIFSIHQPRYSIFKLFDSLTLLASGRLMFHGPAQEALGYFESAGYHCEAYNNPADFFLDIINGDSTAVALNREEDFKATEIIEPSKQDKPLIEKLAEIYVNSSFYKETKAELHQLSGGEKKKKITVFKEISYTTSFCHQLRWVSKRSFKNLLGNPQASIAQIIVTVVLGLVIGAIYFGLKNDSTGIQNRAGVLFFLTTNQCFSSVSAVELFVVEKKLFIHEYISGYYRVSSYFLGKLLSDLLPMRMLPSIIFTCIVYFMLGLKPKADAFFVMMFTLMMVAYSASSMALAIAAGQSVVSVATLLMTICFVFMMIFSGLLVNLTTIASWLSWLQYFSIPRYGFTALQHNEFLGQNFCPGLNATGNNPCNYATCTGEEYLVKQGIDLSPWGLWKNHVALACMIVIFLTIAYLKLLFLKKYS", "conditions": "cited from earlier work"}, "[2]": {"molecular_target": "T2, SARS-CoV-2 spike protein S1 subunit (Severe acute respiratory syndrome coronavirus 2, UniProt P0DTC2)", "T2 construct": "Recombinant SARS-CoV-2 spike protein S1 subunit (˜72 kDa) containing an N-terminal His-tag; purchased RayBiotech (Peachtree Corners, GA)", "type": "binding"}, "SARS-CoV-2 S1 protein": {"molecular_target": "T3, SARS-CoV-2 S1 protein (Severe acute respiratory syndrome coronavirus 2, UniProt P0DTC2)", "T3 construct": "Recombinant SARS-CoV-2 spike protein S1 subunit (˜72 kDa) containing an N-terminal His-tag; purchased RayBiotech (S1); LifeTein (SBP-1 peptide)", "experiment": "MagMASS competition assay with SBP-1 (binding site determination)"}, "[3]": {"molecular_target": "T2, SARS-CoV-2 spike protein S1 subunit", "experiment": "Equilibrium dissociation constants by rapid equilibrium dialysis", "type": "binding", "conditions": "37° C., PBS pH 7.2", "protocol": "Equilibrium dissociation constants. The affinity constants for the binding of active compounds to the spike protein S1 subunit were determined by rapid equilibrium dialysis. First, the optimum time for full equilibration of the RED device obtained from ThermoFisher (Waltham, MA) was determined with each of the compounds by adding 1 μM spike protein in buffer (300 μL) to the protein chamber and adding blank phosphate buffered saline, pH 7.2 (500 μL) to the buffer chamber. CBGA or CBDA was spiked into the protein chamber at a final concentration of 2.5 μM. […] After centrifugation at 18,000 g for 30 min, the supernatant was removed and ligand concentration was measured using UHPLC-MS/MS. Next, the equilibrium dissociation constants of CBGA and CBDA were determined by incubating the spike protein S1 subunit with different concentrations of the ligands ranging from 0.05-500 μM in triplicate. After 5 h for CBGA or 4 h for CBDA, the concentrations of each ligand in the sample and buffer chambers were measured using UHPLC-MS/MS as described above. Data analysis and fitting was carried out using Microsoft Excel (Seattle, WA) and KaleidaGraph v4.1 (Reading, PA)."}, "SARS-CoV-2 (WA1/2020) [4]": {"tested_on": "SARS-CoV-2 (WA1/2020)", "type": "cell-based"}, "SARS-CoV-2 (WA1/2020) [5]": {"tested_on": "SARS-CoV-2 (WA1/2020)", "experiment": "microbe, parasite or virus in culture", "type": "cell-based", "conditions": "Severe acute respiratory syndrome coronavirus 2, Vero C1008"}, "[6]": {"conditions": "beagle dogs, oral, 1 mg/kg; cited from earlier work"}, "[7]": {"conditions": "human volunteers, oral, 0.063 mg/kg; cited from earlier work"}},
  "data": [
    {"smiles": "C=C(C)[C@@H]1CCC(C)=C[C@H]1c1c(O)cc(CCCCC)cc1O", "note": "[CBD, Cannabidiol]", "values": [
      {"measurement": "inhibition of the transporter ABCG2", "setting": "[1]", "result": "inhibitors"},
      {"measurement": "Fold Peak Area Enrichment, Standards mixture", "setting": "[2]", "result": "2.9 ± 0.72"},
      {"measurement": "Fold peak area enrichment", "setting": "[2]", "result": "2.9 ± 0.72"},
      {"measurement": "binding in competitive binding MagMASS assays", "setting": "[2]", "result": "weak or no binding"}
    ]},
    {"smiles": "C=CC(C)(C)c1cc(/C=C/C(=O)c2ccc(O)cc2)c(OC)cc1O", "note": "[licochalcone A]", "values": [
      {"measurement": "binding in the presence of SBP-1", "setting": "SARS-CoV-2 S1 protein; 2.8 μM SBP-1", "result": "reduced"},
      {"measurement": "MagMASS peak area enrichment lowered when SBP-1 was added", "setting": "SARS-CoV-2 S1 protein; SBP-1 added to incubation with active S1 protein", "result": 3, "unit": "fold"}
    ]},
    {"smiles": "CCCCCc1cc(O)c2c(c1)OC(C)(C)c1ccc(C)cc1-2", "note": "[CBN, Cannabinol]", "values": [
      {"measurement": "Fold Peak Area Enrichment, Standards mixture", "setting": "[2]", "result": "3.4 ± 0.78"},
      {"measurement": "Fold peak area enrichment", "setting": "[2]", "result": "3.4 ± 0.78"},
      {"measurement": "binding in competitive binding MagMASS assays", "setting": "[2]", "result": "weak or no binding"}
    ]},
    {"smiles": "COc1c(C)c2c(c(O)c1C/C=C(\\C)CCC(=O)O)C(=O)OC2", "note": "[mycophenolic acid]", "values": [
      {"measurement": "binding to the immobilized S1 protein in the MagMASS assay", "setting": "[2]", "result": "no binding"}
    ]},
    {"smiles": "CCCCCc1cc(O)c(C/C=C(\\C)CCC=C(C)C)c(O)c1C(=O)O", "note": "[CBGA, Cannabigerolic acid]", "values": [
      {"measurement": "Kd", "setting": "[3]", "result": "19.8 ± 2.7", "unit": "µM"},
      {"measurement": "SARS-CoV-2 viral RNA in cells (anti-dsRNA staining)", "setting": "SARS-CoV-2 (WA1/2020) [4]", "result": "absence of SARS-CoV-2 viral RNA"},
      {"measurement": "Fold Peak Area Enrichment, Pure compound", "setting": "[2]", "result": "10.9 ± 1.3"},
      {"measurement": "Fold Peak Area Enrichment, Standards mixture", "setting": "[2]", "result": "20.5 ± 0.51"},
      {"measurement": "Fold peak area enrichment", "setting": "[2]", "result": "20.5 ± 0.51"},
      {"measurement": "IC50", "setting": "SARS-CoV-2 (WA1/2020) [5]", "result": 37, "unit": "µg/mL"}
    ]},
    {"smiles": "CCCCCc1cc(O)c2c(c1)OC(C)(CCC=C(C)C)C=C2", "note": "(stereo not drawn) [CBC, Cannabichromene]", "values": [
      {"measurement": "Fold Peak Area Enrichment, Standards mixture", "setting": "[2]", "result": "2.9 ± 0.75"},
      {"measurement": "Fold peak area enrichment", "setting": "[2]", "result": "2.9 ± 0.75"},
      {"measurement": "binding in competitive binding MagMASS assays", "setting": "[2]", "result": "weak or no binding"}
    ]},
    {"smiles": "CCCCCc1cc2c(c(O)c1C(=O)O)-c1cc(C)ccc1C(C)(C)O2", "note": "[CBNA, Cannabinolic acid]", "values": [
      {"measurement": "Fold peak area enrichment", "setting": "[2]", "result": "5.6 ± 1.4"}
    ]},
    {"smiles": "CCCCCc1cc(O)c(C/C=C(\\C)CCC=C(C)C)c(O)c1", "note": "[CBG, Cannabigerol]", "values": [
      {"measurement": "inhibition of the transporter ABCG2", "setting": "[1]", "result": "inhibitors"},
      {"measurement": "Fold Peak Area Enrichment, Standards mixture", "setting": "[2]", "result": "3.4 ± 0.82"},
      {"measurement": "Fold peak area enrichment", "setting": "[2]", "result": "3.4 ± 0.82"},
      {"measurement": "binding in competitive binding MagMASS assays", "setting": "[2]", "result": "weak or no binding"}
    ]},
    {"smiles": "CCN(CC)CCCC(C)Nc1c2ccc(Cl)cc2nc2ccc(OC)cc12", "note": "(stereo not drawn) [quinacrine]", "values": [
      {"measurement": "binding to the immobilized S1 protein in the MagMASS assay", "setting": "[2]", "result": "no binding"}
    ]},
    {"smiles": "Cc1ccc(NC(=O)c2ccc(CN3CCN(C)CC3)cc2)cc1Nc1nccc(-c2cccnc2)n1", "note": "[Imatinib, imatinib]", "values": [
      {"measurement": "binding to the immobilized S1 protein in the MagMASS assay", "setting": "[2]", "result": "no binding"}
    ]},
    {"smiles": "CCCCCc1cc(O)c(C/C=C(\\C)CCC=C(C)C)c(OC)c1", "note": "[CBG-OMe]", "values": [
      {"measurement": "Fold Peak Area Enrichment, Pure compound", "setting": "[2]", "result": "1.8 ± 0.07"}
    ]},
    {"smiles": "CCCCCc1cc(O)c2c(c1)OC(C)(C)[C@@H]1CCC(C)=C[C@@H]21", "note": "[Δ^9-THC, Δ^9-Tetrahydrocannabinol]", "values": [
      {"measurement": "Fold Peak Area Enrichment, Standards mixture", "setting": "[2]", "result": "3.0 ± 0.77"},
      {"measurement": "Fold peak area enrichment", "setting": "[2]", "result": "3.0 ± 0.77"},
      {"measurement": "binding in competitive binding MagMASS assays", "setting": "[2]", "result": "weak or no binding"}
    ]},
    {"smiles": "C=C(C)[C@@H]1CCC(C)=C[C@H]1c1c(O)cc(CCCCC)c(C(=O)O)c1O", "note": "[CBDA, Cannabidiolic acid]", "values": [
      {"measurement": "Kd", "setting": "[3]", "result": "5.6 ± 2.2", "unit": "µM"},
      {"measurement": "bioavailability relative to CBD", "setting": "[6]", "result": 2, "unit": "fold"},
      {"measurement": "serum levels", "setting": "[6]", "result": "up to 1.42 μM"},
      {"measurement": "tolerability", "setting": "[6]", "result": "well tolerated"},
      {"measurement": "SARS-CoV-2 viral RNA in cells (anti-dsRNA staining)", "setting": "SARS-CoV-2 (WA1/2020) [4]", "result": "absence of SARS-CoV-2 viral RNA"},
      {"measurement": "substrate of the efflux transporter ABCG2", "setting": "[1]", "result": "substrate"},
      {"measurement": "maximum plasma concentrations", "setting": "[7]", "result": 0.21, "unit": "µM"},
      {"measurement": "Fold Peak Area Enrichment, Extract #5", "setting": "[2]", "result": "15.0 ± 0.5"},
      {"measurement": "Fold Peak Area Enrichment, Pure compound", "setting": "[2]", "result": "15.5 ± 1.1"},
      {"measurement": "Fold Peak Area Enrichment, Standards mixture", "setting": "[2]", "result": "12.2 ± 0.52"},
      {"measurement": "Fold peak area enrichment", "setting": "[2]", "result": "12.2 ± 0.52"},
      {"measurement": "IC50", "setting": "SARS-CoV-2 (WA1/2020) [5]", "result": 24, "unit": "µg/mL"}
    ]},
    {"smiles": "CCCCCc1cc2c(c(O)c1C(=O)O)[C@@H]1C=C(C)CC[C@H]1C(C)(C)O2", "note": "[THCA-A, Tetrahydrocannabinolic acid]", "values": [
      {"measurement": "Fold Peak Area Enrichment, Pure compound", "setting": "[2]", "result": "19.7 ± 2.0"},
      {"measurement": "Fold Peak Area Enrichment, Standards mixture", "setting": "[2]", "result": "16.7 ± 2.2"},
      {"measurement": "Fold peak area enrichment", "setting": "[2]", "result": "16.7 ± 2.2"}
    ]},
    {"smiles": "CCCCCc1cc(O)c2c(c1)OC(C)(C)[C@@H]1CC=C(C)C[C@@H]21", "note": "[Δ^8-THC, Δ^8-Tetrahydrocannabinol]", "values": [
      {"measurement": "Fold Peak Area Enrichment, Standards mixture", "setting": "[2]", "result": "3.1 ± 0.81"},
      {"measurement": "Fold peak area enrichment", "setting": "[2]", "result": "3.1 ± 0.81"},
      {"measurement": "binding in competitive binding MagMASS assays", "setting": "[2]", "result": "weak or no binding"}
    ]},
    {"smiles": "C=C(C)[C@@H]1CCC(C)=C[C@H]1c1c(O)cc(CCCCC)cc1OC", "note": "[CBD-OMe]", "values": [
      {"measurement": "Fold Peak Area Enrichment, Pure compound", "setting": "[2]", "result": "1.5 ± 0.12"}
    ]},
    {"smiles": "C=C(C)[C@@H]1CCC(C)=C[C@H]1c1c(O)cc(CCC)cc1O", "note": "[CBDV, Cannabidivarin]", "values": [
      {"measurement": "Fold Peak Area Enrichment, Standards mixture", "setting": "[2]", "result": "1.6 ± 0.17"},
      {"measurement": "Fold peak area enrichment", "setting": "[2]", "result": "1.6 ± 0.17"}
    ]}
  ]
}
